Test results taken from paper PMC8972196, “A Set of Experimentally Validated Decoys for the Human CC Chemokine Receptor 7 (CCR7) Obtained by Virtual Screening” (Frontiers in Pharmacology, 2022).
Where two headings read alike, the source gives them in different places.

Molecular target: T1, human CCR7 (Homo sapiens, UniProt P32248)
T1 construct: expressed in transfected cells
T1 sequence (P32248 25-378): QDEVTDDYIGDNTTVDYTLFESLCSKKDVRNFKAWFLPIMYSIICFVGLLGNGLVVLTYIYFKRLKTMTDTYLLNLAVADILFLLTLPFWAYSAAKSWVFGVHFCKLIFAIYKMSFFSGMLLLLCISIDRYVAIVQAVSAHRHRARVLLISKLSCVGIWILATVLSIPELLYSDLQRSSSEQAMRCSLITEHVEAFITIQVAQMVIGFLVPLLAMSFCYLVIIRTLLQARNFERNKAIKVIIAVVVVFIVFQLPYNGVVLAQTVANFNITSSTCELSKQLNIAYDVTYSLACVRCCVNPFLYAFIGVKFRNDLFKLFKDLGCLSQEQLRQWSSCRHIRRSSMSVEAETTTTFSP
Experiment: CCL19-induced calcium mobilization assay, U87.CD4 cells expressing CCR7
Assay type: cell-based
Protocol: U87.CD4 cells that stably express either human CCR7, CXCR2, CCR5 or CXCR4 were seeded (20,000 cells/well) in gelatin-coated black-walled polystyrene 96-well plates with clear bottom and incubated overnight at 37°C and 5% CO2. […] Culture medium was removed, and cells were incubated for 45 min at room temperature in the dark. […] Exactly the same protocol was used to record calcium responses in Chinese hamster ovary (CHO)-K1 cells, upon stimulation with adenosine triphosphate (ATP, purchased from Sigma).

[1] = CCL19-induced calcium signaling, read-out: IC50 [μM] block CCL19 induced calcium signaling
[2] = classification of tested compounds as decoy or active
[3] = CCL19 induced calcium signaling, read-out: IC50 [μM] block CCL19 induced calcium signaling
[4] = classification as decoy or active on CCR7

Row | Structure (SMILES) | IC50 [1] | Decoy – 0 Active – 1 [2] | IC50 [3] | Decoy – 0 Active – 1 [4] | IC50
1 | CN1CC[C@H](NC(=O)CN[C@@H](c2ccccc2)C(F)(F)F)C1=O [C107, CN1CC[C@H](NC(=O)CN[C@@H](c2ccccc2)C(F)(F)F)C1=O] | > 50 µM | 0 |  |  | 
2 | Cc1nc[nH]c1C(=O)NC1CC(=O)N(Cc2ccccc2Cl)C1 (stereo not drawn) [C274, Cc1nc[nH]c1C(=O)NC1CC(=O)N(Cc2ccccc2Cl)C1] |  |  | > 50 µM | 0 | 
3 | Cc1nc[nH]c1C(=O)NC1CC(=O)N(Cc2cccc3ccccc23)C1 (stereo not drawn) [C276, Cc1nc[nH]c1C(=O)NC1CC(=O)N(Cc2cccc3ccccc23)C1] |  |  | > 50 µM | 0 | 
4 | Cc1c(NC(=O)CN(C)Cc2ccc(F)cc2)cccc1C(=O)N(C)C [C099, Cc1c(NC(=O)C[N@H+](C)Cc2ccc(F)cc2)cccc1C(=O)N(C)C] | > 50 µM | 0 |  |  | 
5 | O=C(NCC1(c2cccc(F)c2)CCCCC1)c1n[nH]c(=O)[nH]1 [C195, O=C(NCC1(c2cccc(F)c2)CCCCC1)c1n[nH]c(=O)[nH]1] |  |  | > 50 µM | 0 | 
6 | O=C1CC(NCc2nc3ccccc3[nH]2)CN1Cc1ccccc1C(F)(F)F (stereo not drawn) [C277, O=C1CC(NCc2nc3ccccc3[nH]2)CN1Cc1ccccc1C(F)(F)F] |  |  | > 50 µM | 0 | 
7 | Cc1sc(NC(=S)NC(=O)CCc2ccccc2)c(C(N)=O)c1C [C029, Cc1sc(NC(=S)NC(=O)CCc2ccccc2)c(C(N)=O)c1C] | > 30 µM | 0 |  |  | 
8 | C/N=C(\NCCC(=O)N(C)C)N[C@H](C)c1ccc(C)o1 [C140, C/[NH+]=C(\NCCC(=O)N(C)C)N[C@H](C)c1ccc(C)o1] | > 50 µM | 0 |  |  | 
9 | O=C(NC1CCCCNC1=O)NC1CCSc2ccccc21 (stereo not drawn) [C202, O=C(NC1CCCCNC1=O)NC1CCSc2ccccc21] |  |  | > 50 µM | 0 | 
10 | O=S1(=O)C[C@H](Nc2ccc(Cl)cc2)[C@H](NCc2ccccc2)C1 [C122, O=S1(=O)C[C@@H](NCc2ccccc2)[C@@H](Nc2ccc(Cl)cc2)C1] | > 50 µM | 0 |  |  | 
11 | CCc1cccc(NC(=S)NNC(=O)c2cccc([N+](=O)[O-])c2)c1 [C033, CCc1cccc(NC(=S)NNC(=O)c2cccc(c2)[N+]([O-])=O)c1] | > 30 µM | 0 |  |  | 
12 | O=S1(=O)N=C(NCCN2CCCC2)C(NCCN2CCCC2)=N1 [C150, O=S1(=O)N=C(NCC[NH+]2CCCC2)C(NCC[NH+]2CCCC2)=N1] | > 50 µM | 0 |  |  | 
13 | CCCc1ccc(S(=O)(=O)NC2COc3ccc(OC)cc3C2)cc1 (stereo not drawn) [C254, CCCc1ccc(cc1)S(=O)(=O)NC2Cc3cc(ccc3OC2)OC] |  |  | > 50 µM | 0 | 
14 | CCOC(=O)CNC(=S)Nc1ncccc1C [C043, CC1=CC=CN=C1NC(NCC(OCC)=O)=S] | > 30 µM | 0 |  |  | 
15 | CC1(C)CC(NC(=O)c2cc(O)c3ccccc3c2)C(C)(C)O1 (stereo not drawn) [C178, CC1(C)CC(NC(=O)c2cc(O)c3ccccc3c2)C(C)(C)O1] |  |  | > 50 µM | 0 | 
16 | CN(C)C(=O)c1ccc(CN2CCCC[C@H]2CCn2cccn2)o1 [C105, CN(C)C(=O)c1ccc(C[N@H+]2CCCC[C@H]2CCn2cccn2)o1] | > 50 µM | 0 |  |  | 
17 | COc1cccc(N(CC(=O)N2CCC(C(N)=O)CC2)S(=O)(=O)c2ccc(C)cc2)c1 [C253, Cc1ccc(cc1)S(=O)(=O)N(CC(=O)N2CCC(CC2)C(=O)N)c3cccc(c3)OC] |  |  | > 50 µM | 0 | 
18 | Cc1ccn(C)c(=O)c1NC(=O)NC1CCCc2ccc(Cl)cc21 (stereo not drawn) [C196, Cc1ccn(C)c(=O)c1NC(=O)NC1CCCc2ccc(Cl)cc21] |  |  | > 50 µM | 0 | 
19 | CC(C)c1ccc(S(=O)(=O)N2CCN(C)CC2c2ccccc2)cc1 (stereo not drawn) [C237, CC(C)c1ccc(cc1)S(=O)(=O)N2CC[NH+](CC2c3ccccc3)C] |  |  | > 50 µM | 0 | 
20 | CC[C@@H](NC1=NS(=O)(=O)c2ccccc21)C(=O)NOC [C156, CC[C@@H](NC1=NS(=O)(=O)c2ccccc21)C(=O)NOC] | > 50 µM | 0 |  |  | 
21 | N=C(Nc1ccc(Br)cc1)C(N)=Nc1ccc(Br)cc1 [C077, NC(=[NH+]c1ccc(Br)cc1)C(=[NH2+])Nc1ccc(Br)cc1] | > 10 µM | 0 |  |  | 
22 | CC[C@@H](NC(=O)N1CCN(C(=O)c2ccccc2)CC1)c1cccc(C)n1 [C161, CC[C@@H](NC(=O)N1CCN(C(=O)c2ccccc2)CC1)c1cccc(C)n1] |  |  | > 50 µM | 0 | 
23 | O=C(CCC1(C(=O)O)CCC(=O)NC1)NCc1ccccc1 (stereo not drawn) [C216, O=C(CCC1(C(=O)[O-])CCC(=O)NC1)NCc1ccccc1] |  |  | > 50 µM | 0 | 

Row | Structure (SMILES) | IC50 [1] | Decoy – 0 Active – 1 [2] | IC50 [3] | Decoy – 0 Active – 1 [4] | IC50
24 | CN(C)C(=O)c1cc(NC(=O)NCC(C)(C)c2ccccc2)ccn1 [C129, CN(C)C(=O)c1cc(NC(=O)NCC(C)(C)c2ccccc2)ccn1] | > 50 µM | 0 |  |  | 
25 | COc1ccc(O)c(/C=C(\C#N)C(=O)Nc2cccc(Cl)c2Cl)c1 [C164, COc1ccc(O)c(/C=C(\C#N)C(=O)Nc2cccc(Cl)c2Cl)c1] |  |  | > 50 µM | 0 | 
26 | Cc1ccc(C(=O)NC2CCC(=O)NC2C)cc1N1CCOCC1 (stereo not drawn) [C211, Cc1ccc(C(=O)NC2CCC(=O)NC2C)cc1N1CCOCC1] |  |  | > 50 µM | 0 | 
27 | CCNC(=O)c1ccc(CNS(=O)(=O)c2ccc3c(c2)CCC3)cc1 [C261, CCNC(=O)c1ccc(cc1)CNS(=O)(=O)c2ccc3c(c2)CCC3] |  |  | > 50 µM | 0 | 
28 | CCc1ccc(S(=O)(=O)NC2Cc3cc(C(=O)NC(C)C)nn3C2)cc1 (stereo not drawn) [C241, CCc1ccc(cc1)S(=O)(=O)NC2Cc3cc(nn3C2)C(=O)NC(C)C] |  |  | > 50 µM | 0 | 
29 | CN(C)C(=O)c1ccc(Cl)c(NCC(=O)N(C)Cc2ccco2)c1 [C061, CN(C)C(=O)c1ccc(Cl)c(NCC(=O)N(C)Cc2ccco2)c1] | > 10 µM | 0 |  |  | 
30 | COc1ccc(S(=O)(=O)Nc2ccccc2C(=O)N2CCOCC2)cc1Br [C251, COc1ccc(cc1Br)S(=O)(=O)Nc2ccccc2C(=O)N3CCOCC3] |  |  | > 50 µM | 0 | 
31 | O=S(=O)(c1cccc(F)c1)N1CC(c2cccnc2)C(c2nc(C3CCCC3)no2)C1 (stereo not drawn) [C246, c1cc(cc(c1)S(=O)(=O)N2CC(C(C2)c3nc(no3)C4CCCC4)c5cccnc5)F] |  |  | > 50 µM | 0 | 
32 | O=S1(=O)N=C(NCc2ccccn2)c2ccccc21 [C149, O=S1(=O)N=C(NCc2ccccn2)c2ccccc21] | > 50 µM | 0 |  |  | 
33 | Cc1ccc(NC(=O)CN(C)C[C@@H]2CCCO2)cc1[N+](=O)[O-] [C106, Cc1ccc(NC(=O)C[N@@H+](C)C[C@@H]2CCCO2)cc1[N+](=O)[O-]] | > 50 µM | 0 |  |  | 
34 | COc1ccc(CCNC(=O)CN(c2ccc([N+](=O)[O-])cc2)S(=O)(=O)c2ccccc2)cc1 [C271, COc1ccc(cc1)CCNC(=O)CN(c2ccc(cc2)[N+](=O)[O-])S(=O)(=O)c3ccccc3] |  |  | > 50 µM | 0 | 
35 | O=c1c(NCC2COc3ccccc3O2)c(N2CCSCC2)c1=O (stereo not drawn) [C003, O=c1c(NCC2COc3ccccc3O2)c(N2CCSCC2)c1=O] | > 50 µM | 0 |  |  | 
36 | O=C1NC[C@H](C(=O)N(Cc2ccco2)C2CC2)N1 [C151, O=C1NC[C@H](C(=O)N(Cc2ccco2)C2CC2)N1] | > 50 µM | 0 |  |  | 
37 | CN(C)S(=O)(=O)c1ccc(-c2nnc(C(=O)NCc3ccccn3)o2)cc1 [C085, CN(C)S(=O)(=O)c1ccc(-c2nnc(C(=O)NCc3ccccn3)o2)cc1] | > 50 µM | 0 |  |  | 
38 | CCOC(=O)NC(=S)Nc1cc(C)nc(C)n1 [C046, CC1=NC(NC(NC(OCC)=O)=S)=CC(C)=N1] | > 30 µM | 0 |  |  | 
39 | CNC(=O)c1cccc(NC(=O)N[C@H](C)Cc2ccc(C)s2)c1C [C115, CNC(=O)c1cccc(NC(=O)N[C@H](C)Cc2ccc(C)s2)c1C] |  | 0 |  |  | > 50 µM
40 | O=C(CCCc1ccccc1)N[C@H]1CCN(CC(F)(F)F)C1=O [C096, O=C(CCCc1ccccc1)N[C@H]1CCN(CC(F)(F)F)C1=O] | > 50 µM | 0 |  |  | 
41 | CN(C)CCNC(=S)Nc1cc(C(F)(F)F)cc(C(F)(F)F)c1 [C041, S=C(NCCN(C)C)NC1=CC(C(F)(F)F)=CC(C(F)(F)F)=C1] | > 50 µM | 0 |  |  | 
42 | Cc1ccc(CNC(=O)c2nnc(-c3ccc(S(=O)(=O)N(C)C)cc3)o2)o1 [C088, Cc1ccc(CNC(=O)c2nnc(-c3ccc(S(=O)(=O)N(C)C)cc3)o2)o1] | > 50 µM | 0 |  |  | 
43 | O=C(NCc1ccccc1F)N1CCC(c2ccc3c(c2)OCO3)C(O)C1 (stereo not drawn) [C180, O=C(NCc1ccccc1F)N1CCC(c2ccc3c(c2)OCO3)C(O)C1] |  |  | > 50 µM | 0 | 
44 | Cc1ccc(S(=O)(=O)N(CCC(=O)NC(C)CO)c2ccccc2)cc1 (stereo not drawn) [C250, Cc1ccc(cc1)S(=O)(=O)N(CCC(=O)NC(C)CO)c2ccccc2] |  |  | > 50 µM | 0 | 
45 | CN(Cc1csc(-c2ccccc2)n1)C(=O)c1c[nH]c(=O)c(Cl)c1 [C232, CN(Cc1csc(-c2ccccc2)n1)C(=O)c1c[nH]c(=O)c(Cl)c1] |  |  | > 50 µM | 0 | 
